From patent US6303641A, “Cyanoamidines as cell proliferation inhibitors” (Leo Pharmaceuticals Products Ltd., priority 1997, dated 2001)

How the values were obtained:
[1] = system: human small cell lung carcinoma (NYH); assay: Inhibition of tumour cell proliferation in vitro ([3H]thymidine incorporation), NYH; type: cell-based; details: 24 hours, read-out: The median inhibition concentration (IC50, nM) of NYH
Protocol: (§1) The inhibition of tumour cell proliferation was studied using different types of human cancer cell lines. The cell lines under investigation were small cell lung carcinoma (NYH), and breast cancer (MCF-7) using the following general procedure.
(§2) The cells were cultured in vitro for 24 hours in the presence of the compound under investigation. DNA synthesis was measured by incorporation of [3H]thymidine, and the median inhibitory concentrations (IC50) of the compounds were calculated.

[2] = system: human breast cancer (MCF-7); assay: Inhibition of tumour cell proliferation in vitro ([3H]thymidine incorporation), MCF-7; type: cell-based; details: MCF7, 24 hours, read-out: The median inhibition concentration (IC50, nM) of MCF-7
Protocol: as §1, §2

[3] = system: Yoshida sarcoma cells; assay: Survival of Yoshida tumour-bearing rats (Increased Life Span); type: in vivo, LEW/Mol inbred female rats; details: once daily from day 3
Protocol: The prolongation of survival time of tumour-bearing rats was studied in LEW/Mol inbred female rats inoculated with Yoshida sarcoma cells in a number of 2×10^7 cells. Tumour-bearing rats (6 animals per group) were dosed orally once daily from day 3 after the transfer of tumour cells and until death or until the body-weights had increased by 10% as a consequence of tumour proliferation. The mean survival day of treated versus non-treated rats is used to calculate ILS (Increased Life Span). ILS=((mean treated/mean control)-1)*100%.

| Compound | IC50 [1] [nM] | IC50 [2] [nM] | Increased life span (ILS) ([3]; 10 mg/kg p.o.) [%] | Increased life span (ILS) ([3]; 20 mg/kg p.o.) [%] | Increased life span (ILS) ([3]; 30 mg/kg p.o.) [%] | Increased life span (ILS) ([3]; 50 mg/kg p.o.) [%] |
| --- | --- | --- | --- | --- | --- | --- |
| COc1ccccc1OCCCCCCNC(=NC#N)c1cccnc1 [Example no. 2, N^2 -Cyano-N^1-(6-(2-methoxyphenoxy)hexyl)-3-pyridinecarboxamidine] | 340 | 540 |  |  |  |  |
| N#CN=C(NCCCCCCOc1ccc2c(c1)OCO2)c1cccnc1 [Example no. 3, N^2 -Cyano-N^1-(6-(3,4-methylenedioxyphenoxy)hexyl)-3-pyridinecarboxamidine] | 350 | 740 |  |  |  |  |
| CCCCCCCCNC(=NC#N)c1cccnc1 [Prior art A, N^2 -Cyano-N^1-octyl-3-pyridinecarboxamidine, reference compound] |  | 10000 |  |  |  |  |
| N#CNC(=Nc1ccncc1)NCCCCOc1ccccc1 [Prior art B, N-Cyano-N'-(4-phenoxybutyl)-N"-4-pyridylguanidine, reference compound] | 380 | 920 |  |  |  |  |

The next compounds have a lower IC50 [2] than those just listed; values first:

| IC50 [1] [nM] | IC50 [2] [nM] | Compound | Increased life span (ILS) ([3]; 10 mg/kg p.o.) [%] | Increased life span (ILS) ([3]; 20 mg/kg p.o.) [%] | Increased life span (ILS) ([3]; 30 mg/kg p.o.) [%] | Increased life span (ILS) ([3]; 50 mg/kg p.o.) [%] |
| --- | --- | --- | --- | --- | --- | --- |
| 39 | 350 | N#CN=C(NCCCCCCOc1ccc(Cl)cc1)c1cccnc1 [Example no. 1, N^2 -Cyano-N^1-(6(4-chlorophenoxy)hexyl)-3-pyridinecarboxamidine] | 60 | 90 | 102 |  |
| 45 | 250 | N#CNC(=Nc1ccncc1)NCCCCCOc1ccccc1 [Prior art C, N-Cyano-N'-(5-phenoxypentyl)-N"-4-pyridylguanidine, reference compound] |  |  |  | 35 |
